Calls of active or inactive are those of the source. No cut-off for these calls is given here.
Key:
[1] = target: T1, Serine/threonine-protein kinase ULK1 (Homo sapiens) (UniProt O75385); test: Inhibition of ULK1 Lys2 labeling site in human A-375 cells at 0.05 uM by KiNativ Profiling analysis relative to control; assay type: cell-based
T1 sequence (whole entry): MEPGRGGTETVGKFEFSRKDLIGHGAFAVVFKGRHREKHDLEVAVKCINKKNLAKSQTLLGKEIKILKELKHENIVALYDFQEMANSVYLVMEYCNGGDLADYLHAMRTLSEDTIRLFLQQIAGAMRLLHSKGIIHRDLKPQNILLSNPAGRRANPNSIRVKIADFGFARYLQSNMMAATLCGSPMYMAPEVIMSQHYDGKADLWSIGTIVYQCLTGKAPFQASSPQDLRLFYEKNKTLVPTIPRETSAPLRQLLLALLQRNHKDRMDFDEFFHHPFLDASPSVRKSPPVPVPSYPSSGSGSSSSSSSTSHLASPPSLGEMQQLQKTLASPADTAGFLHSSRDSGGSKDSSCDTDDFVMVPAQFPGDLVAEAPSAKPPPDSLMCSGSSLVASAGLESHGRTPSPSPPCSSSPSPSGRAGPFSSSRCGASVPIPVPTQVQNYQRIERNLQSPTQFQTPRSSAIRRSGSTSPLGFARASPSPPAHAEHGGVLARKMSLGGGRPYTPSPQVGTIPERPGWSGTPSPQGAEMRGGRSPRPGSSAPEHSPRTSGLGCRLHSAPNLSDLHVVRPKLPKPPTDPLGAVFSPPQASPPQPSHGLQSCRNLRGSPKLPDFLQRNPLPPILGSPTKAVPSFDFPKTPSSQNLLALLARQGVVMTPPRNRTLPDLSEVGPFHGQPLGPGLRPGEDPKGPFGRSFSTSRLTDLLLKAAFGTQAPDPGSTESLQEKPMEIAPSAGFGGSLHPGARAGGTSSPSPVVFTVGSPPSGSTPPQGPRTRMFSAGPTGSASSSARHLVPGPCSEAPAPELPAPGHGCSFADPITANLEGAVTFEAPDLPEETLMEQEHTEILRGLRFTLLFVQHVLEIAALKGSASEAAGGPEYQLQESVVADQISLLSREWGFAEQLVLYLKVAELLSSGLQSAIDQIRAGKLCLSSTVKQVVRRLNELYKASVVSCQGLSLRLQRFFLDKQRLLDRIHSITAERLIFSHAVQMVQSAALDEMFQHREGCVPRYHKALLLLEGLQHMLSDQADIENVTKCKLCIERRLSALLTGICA

[2] = target: Activin receptor type-1-like (Homo sapiens) (UniProt P37023); test: Inhibition of ACVRL1 (unknown origin) at 10 uM by Ambit Kinomescan binding assay
[3] = target: T2, Serine/threonine-protein kinase TBK1 (Homo sapiens) (UniProt Q9UHD2); test: Inhibition of TBK1 K1 labeling site in human Huh-7 cells at 1 uM by KiNativ Profiling analysis relative to control; assay type: cell-based
T2 sequence (whole entry): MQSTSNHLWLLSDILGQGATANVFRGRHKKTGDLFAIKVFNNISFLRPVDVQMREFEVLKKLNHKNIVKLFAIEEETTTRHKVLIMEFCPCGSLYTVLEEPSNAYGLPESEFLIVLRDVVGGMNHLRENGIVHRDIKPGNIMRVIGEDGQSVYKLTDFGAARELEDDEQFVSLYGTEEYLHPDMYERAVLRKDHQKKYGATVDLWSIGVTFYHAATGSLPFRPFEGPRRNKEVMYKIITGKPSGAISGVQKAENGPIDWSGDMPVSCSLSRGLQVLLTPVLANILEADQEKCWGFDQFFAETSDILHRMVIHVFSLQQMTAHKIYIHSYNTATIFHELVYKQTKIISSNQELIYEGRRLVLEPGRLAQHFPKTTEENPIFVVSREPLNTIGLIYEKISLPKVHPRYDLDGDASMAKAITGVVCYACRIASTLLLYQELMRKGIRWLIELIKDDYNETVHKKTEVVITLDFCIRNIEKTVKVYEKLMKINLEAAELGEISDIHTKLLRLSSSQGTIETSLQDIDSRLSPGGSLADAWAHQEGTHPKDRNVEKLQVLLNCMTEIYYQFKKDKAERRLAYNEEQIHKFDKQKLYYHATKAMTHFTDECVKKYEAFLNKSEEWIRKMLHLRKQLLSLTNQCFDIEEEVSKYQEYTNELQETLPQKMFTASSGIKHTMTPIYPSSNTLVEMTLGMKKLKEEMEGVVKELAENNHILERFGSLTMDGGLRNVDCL

[4] = system: Tyrosine-protein kinase ABL1 (Homo sapiens), P00519 [F317L]; test: Inhibition of nonphosphorylated ABL1 F317L mutant (unknown origin) at 1 uM by Ambit Kinomescan binding assay relative to control
[5] = target: Cyclin-dependent kinase 8 (Homo sapiens) (UniProt P49336); test: Inhibition of CDK8 Lys2 labeling site in human Huh-7 cell lysate at 1 uM by KiNativ Profiling analysis relative to control; assay type: subcellular
[6] = target: T3, Serine/threonine-protein kinase TAO3 (Homo sapiens) (UniProt Q9H2K8); test: Inhibition of TAO3 Lys2 labeling site in human Huh-7 cell lysate at 1 uM by KiNativ Profiling analysis relative to control; assay type: subcellular
T3 sequence (whole entry): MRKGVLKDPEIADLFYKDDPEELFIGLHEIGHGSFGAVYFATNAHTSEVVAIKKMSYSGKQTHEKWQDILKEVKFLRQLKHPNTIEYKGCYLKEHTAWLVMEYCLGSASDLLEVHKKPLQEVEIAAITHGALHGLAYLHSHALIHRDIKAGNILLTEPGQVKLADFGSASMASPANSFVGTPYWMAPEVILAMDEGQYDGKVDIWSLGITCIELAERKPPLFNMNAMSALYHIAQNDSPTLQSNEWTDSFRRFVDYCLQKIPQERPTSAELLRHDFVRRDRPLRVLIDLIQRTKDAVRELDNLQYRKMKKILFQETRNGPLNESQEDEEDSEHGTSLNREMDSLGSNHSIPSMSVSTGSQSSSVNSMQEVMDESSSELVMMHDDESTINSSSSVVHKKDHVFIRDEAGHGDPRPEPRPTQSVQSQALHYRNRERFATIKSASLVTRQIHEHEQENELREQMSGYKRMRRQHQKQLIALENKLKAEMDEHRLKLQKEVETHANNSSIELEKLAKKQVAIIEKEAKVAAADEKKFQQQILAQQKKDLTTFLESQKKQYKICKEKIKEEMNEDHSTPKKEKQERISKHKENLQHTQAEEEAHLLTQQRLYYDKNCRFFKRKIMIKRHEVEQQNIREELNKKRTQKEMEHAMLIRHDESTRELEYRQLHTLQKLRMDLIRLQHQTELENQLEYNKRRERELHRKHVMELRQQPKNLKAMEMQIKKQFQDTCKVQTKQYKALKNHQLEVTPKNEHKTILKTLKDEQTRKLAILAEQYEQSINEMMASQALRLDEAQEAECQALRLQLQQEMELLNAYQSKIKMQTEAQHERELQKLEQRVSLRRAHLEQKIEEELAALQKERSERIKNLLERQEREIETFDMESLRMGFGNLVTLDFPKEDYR

Activin receptor type-1-like (Homo sapiens), sequence (P37023 whole entry): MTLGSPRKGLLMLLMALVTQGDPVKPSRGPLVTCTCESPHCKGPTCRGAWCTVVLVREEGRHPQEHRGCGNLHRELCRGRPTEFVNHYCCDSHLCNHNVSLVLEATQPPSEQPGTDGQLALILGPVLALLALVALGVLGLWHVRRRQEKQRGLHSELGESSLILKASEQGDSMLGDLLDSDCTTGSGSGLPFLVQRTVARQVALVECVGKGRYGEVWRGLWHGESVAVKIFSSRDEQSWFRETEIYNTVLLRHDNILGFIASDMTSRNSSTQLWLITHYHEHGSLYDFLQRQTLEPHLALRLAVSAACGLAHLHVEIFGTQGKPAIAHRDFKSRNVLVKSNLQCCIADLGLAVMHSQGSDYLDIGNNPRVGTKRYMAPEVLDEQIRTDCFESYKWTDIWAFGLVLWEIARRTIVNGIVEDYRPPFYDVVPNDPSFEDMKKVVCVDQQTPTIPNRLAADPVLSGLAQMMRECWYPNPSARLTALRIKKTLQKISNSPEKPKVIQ
Tyrosine-protein kinase ABL1 (Homo sapiens), P00519 [F317L], sequence (P00519 whole entry F317L): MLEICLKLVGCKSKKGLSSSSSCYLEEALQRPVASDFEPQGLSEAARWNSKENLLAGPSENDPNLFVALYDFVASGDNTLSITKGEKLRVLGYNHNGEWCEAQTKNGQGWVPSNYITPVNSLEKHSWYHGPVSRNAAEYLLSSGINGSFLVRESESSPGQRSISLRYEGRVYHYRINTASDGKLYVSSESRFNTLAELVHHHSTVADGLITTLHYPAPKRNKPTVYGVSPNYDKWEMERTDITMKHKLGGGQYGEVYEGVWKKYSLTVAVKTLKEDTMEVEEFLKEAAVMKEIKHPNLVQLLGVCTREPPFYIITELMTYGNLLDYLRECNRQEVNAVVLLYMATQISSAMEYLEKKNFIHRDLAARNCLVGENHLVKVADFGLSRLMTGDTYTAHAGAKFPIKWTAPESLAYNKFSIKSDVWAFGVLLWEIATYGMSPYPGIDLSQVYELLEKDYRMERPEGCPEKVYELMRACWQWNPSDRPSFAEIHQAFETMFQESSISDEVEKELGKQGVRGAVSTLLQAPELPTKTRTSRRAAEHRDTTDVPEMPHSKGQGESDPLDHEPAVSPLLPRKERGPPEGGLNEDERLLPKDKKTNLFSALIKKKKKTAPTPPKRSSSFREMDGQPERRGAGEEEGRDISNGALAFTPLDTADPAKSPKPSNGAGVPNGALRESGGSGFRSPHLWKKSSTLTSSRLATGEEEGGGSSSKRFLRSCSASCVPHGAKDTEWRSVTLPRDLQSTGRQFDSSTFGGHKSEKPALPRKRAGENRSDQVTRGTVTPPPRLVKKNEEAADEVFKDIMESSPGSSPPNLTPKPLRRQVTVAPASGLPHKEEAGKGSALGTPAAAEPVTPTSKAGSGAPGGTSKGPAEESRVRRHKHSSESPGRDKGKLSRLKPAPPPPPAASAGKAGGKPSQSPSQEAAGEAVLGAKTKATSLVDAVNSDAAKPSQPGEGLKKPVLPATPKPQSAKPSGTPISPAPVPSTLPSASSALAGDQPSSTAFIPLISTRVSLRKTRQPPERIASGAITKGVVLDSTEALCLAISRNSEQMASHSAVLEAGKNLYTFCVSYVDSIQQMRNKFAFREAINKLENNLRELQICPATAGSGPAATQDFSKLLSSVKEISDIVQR
Cyclin-dependent kinase 8 (Homo sapiens), sequence (P49336 whole entry): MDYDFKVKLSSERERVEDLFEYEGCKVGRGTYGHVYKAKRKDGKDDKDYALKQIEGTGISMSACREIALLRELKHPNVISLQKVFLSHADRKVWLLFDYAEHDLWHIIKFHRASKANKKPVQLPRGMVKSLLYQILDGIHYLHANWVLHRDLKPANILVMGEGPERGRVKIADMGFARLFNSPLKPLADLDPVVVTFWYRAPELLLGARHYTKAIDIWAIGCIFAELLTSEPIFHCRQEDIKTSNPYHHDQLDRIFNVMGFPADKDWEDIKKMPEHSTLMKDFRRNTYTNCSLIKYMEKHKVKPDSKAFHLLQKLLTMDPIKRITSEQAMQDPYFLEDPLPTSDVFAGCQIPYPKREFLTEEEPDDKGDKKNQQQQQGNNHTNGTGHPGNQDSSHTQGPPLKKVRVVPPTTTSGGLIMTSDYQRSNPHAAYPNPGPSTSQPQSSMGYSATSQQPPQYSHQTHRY

Q: With `CCN1CCN(Cc2ccc(NC(=O)c3ccc(C)c(Oc4ccnc5[nH]ccc45)c3)cc2C(F)(F)F)CC1` as the compound, how does the inhibition [1] read?
A: The inhibition was 4.8%.

Q: And the inhibition [2]?
A: Its inhibition is “inactive”.

Q: What about the inhibition [3] of the same compound?
A: The inhibition was -9.5%.

Q: Which inhibition [4] does the source give for `CCN1CCN(Cc2ccc(NC(=O)c3ccc(C)c(/C=C/c4cnc5[nH]ccc5c4OC)c3)cc2C(F)(F)F)CC1` here?
A: The inhibition was 0%.

Q: Which inhibition [5] does the source give for `CNc1cc(Oc2cc(C(=O)Nc3cc(N4CCN(C)CC4)cc(C(F)(F)F)c3)ccc2C)ncn1` here?
A: The inhibition was -8.6%.

Q: What about the inhibition [6] of the same compound?
A: Its inhibition is -1.2%.

From ChEMBL document CHEMBL5696442, “Discovery of type II inhibitors of TGFβ-activated kinase 1 (TAK1) and mitogen-activated protein kinase kinase kinase kinase 2 (MAP4K2)” (J Med Chem, 2015)
